Assay results from ChEMBL document CHEMBL4765450, “The components and activities analysis of a novel anticoagulant candidate dHG-5” (Eur J Med Chem, 2020).
Activity calls are given as the source filed them. The calls are words filed in the database; no cut-off is given here.

How the values were obtained:
[1] = system: Plasma; experiment: Induction of platelet aggregation in human platelet rich plasma at plasma peak concentration of 10 times anti-thrombosis ED50 measured after 10 mins by light transmission aggregometry
[2] = target: Coagulation factor IX/VIII (Homo sapiens, UniProt P00451+P00740); experiment: Inhibition of human citrated plasma iXase (factor 8a-factor 9a complex) preincubated for 2 mins followed by factor 10 addition and measured after 1 min by FXa chromogenic substrate SXa-11 based assay; type: protein-complex assay
[3] = target: Coagulation factor IX (Homo sapiens, UniProt P00740); experiment: Inhibition of factor 9a (unknown origin) binding to immobilized biotinylated oHG-11 by biolayer interferometry
[4] = target: Coagulation factor X (Homo sapiens) (UniProt P00742); experiment: Inhibition of factor 10a (unknown origin) at IC50 preincubated for 1 min followed by chromogenic substrate addition and measured for 2 mins; details: time 3.0 min
[5] = system: Plasma; experiment: Anticoagulation activity in AT-III-deficient human plasma preincubated for 2 mins followed by APTT reagent and measured after 3 mins by coagulometric method; type: functional, cell-free; details: time 5.0 min
[6] = system: Plasma; experiment: Anticoagulation activity in HCII-deficient human plasma preincubated for 2 mins followed by APTT reagent and measured after 3 mins by coagulometric method; type: functional, cell-free; details: time 5.0 min
[7] = system: Plasma; experiment: Induction of platelet aggregation in rat wash platelet at plasma peak concentration of 10 times anti-thrombosis ED50 measured after 10 mins by light transmission aggregometry
[8] = MRT (0 to 8 hrs) in Kunming mouse at 1.7 mg/kg, sc; type: ADME, organism-based; details: in vivo
[9] = system: Mus musculus; experiment: Anticoagulation activity in Kunming mouse assessed as APTT-prolonging effect by measuring time for maximum effect at 5.11 mg/kg, sc measured after 0.5 to 8 hrs by APTT reagent based assay; type: functional; details: time 0.5-8 hrs
[10] = MRT (0 to 8 hrs) in Kunming mouse at 5.11 mg/kg, sc; type: ADME, organism-based; details: in vivo
[11] = MRT (0 to infinity) in Kunming mouse at 15.3 mg/kg, sc; type: ADME, organism-based; details: in vivo
[12] = Half life in Kunming mouse at 15.3 mg/kg, sc; type: ADME, organism-based; details: in vivo

Sequence of Coagulation factor IX/VIII (P00451 20-759 limits assumed): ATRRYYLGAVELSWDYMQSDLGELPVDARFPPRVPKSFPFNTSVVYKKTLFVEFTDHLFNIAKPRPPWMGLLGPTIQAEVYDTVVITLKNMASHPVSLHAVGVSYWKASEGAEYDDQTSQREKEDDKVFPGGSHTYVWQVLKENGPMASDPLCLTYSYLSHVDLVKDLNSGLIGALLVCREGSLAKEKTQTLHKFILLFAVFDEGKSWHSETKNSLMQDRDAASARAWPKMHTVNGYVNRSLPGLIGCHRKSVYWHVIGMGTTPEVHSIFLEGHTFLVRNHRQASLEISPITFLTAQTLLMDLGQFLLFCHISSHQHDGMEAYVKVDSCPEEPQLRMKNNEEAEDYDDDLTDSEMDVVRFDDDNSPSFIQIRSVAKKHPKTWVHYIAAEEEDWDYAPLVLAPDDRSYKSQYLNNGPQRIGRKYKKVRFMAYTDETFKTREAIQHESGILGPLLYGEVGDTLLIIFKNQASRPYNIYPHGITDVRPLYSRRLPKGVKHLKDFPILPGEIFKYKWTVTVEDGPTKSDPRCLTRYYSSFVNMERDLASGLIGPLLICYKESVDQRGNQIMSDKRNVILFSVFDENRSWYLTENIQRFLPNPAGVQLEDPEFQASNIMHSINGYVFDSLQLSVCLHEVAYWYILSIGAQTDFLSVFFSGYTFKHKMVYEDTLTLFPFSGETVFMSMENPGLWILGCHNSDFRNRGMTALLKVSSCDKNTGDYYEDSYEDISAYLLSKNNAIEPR
Sequence of Coagulation factor IX/VIII (P00451 1668-2351 limits assumed): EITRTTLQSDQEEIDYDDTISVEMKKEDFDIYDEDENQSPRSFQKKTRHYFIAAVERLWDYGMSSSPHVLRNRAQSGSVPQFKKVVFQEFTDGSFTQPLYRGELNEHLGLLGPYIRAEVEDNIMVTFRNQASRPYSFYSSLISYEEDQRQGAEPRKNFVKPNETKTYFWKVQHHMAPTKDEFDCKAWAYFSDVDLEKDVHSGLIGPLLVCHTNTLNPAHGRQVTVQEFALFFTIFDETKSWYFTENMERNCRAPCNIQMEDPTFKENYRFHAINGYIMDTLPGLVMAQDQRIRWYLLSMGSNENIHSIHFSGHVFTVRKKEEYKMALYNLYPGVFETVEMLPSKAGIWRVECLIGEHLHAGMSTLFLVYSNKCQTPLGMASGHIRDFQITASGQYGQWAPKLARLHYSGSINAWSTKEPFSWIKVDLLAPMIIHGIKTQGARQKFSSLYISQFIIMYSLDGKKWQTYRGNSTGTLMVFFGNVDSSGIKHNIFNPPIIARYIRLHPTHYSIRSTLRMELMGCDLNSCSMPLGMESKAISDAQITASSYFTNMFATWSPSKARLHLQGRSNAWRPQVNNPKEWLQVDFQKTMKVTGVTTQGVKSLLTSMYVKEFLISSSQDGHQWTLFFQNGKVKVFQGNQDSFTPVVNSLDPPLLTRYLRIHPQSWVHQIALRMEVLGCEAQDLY
Sequence of Coagulation factor IX/VIII (P00740 47-191 limits assumed): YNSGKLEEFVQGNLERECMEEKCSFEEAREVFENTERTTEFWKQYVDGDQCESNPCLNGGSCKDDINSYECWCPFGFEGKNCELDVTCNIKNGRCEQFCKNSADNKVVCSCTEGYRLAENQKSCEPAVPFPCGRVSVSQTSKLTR
Sequence of Coagulation factor IX/VIII (P00740 227-461 limits assumed): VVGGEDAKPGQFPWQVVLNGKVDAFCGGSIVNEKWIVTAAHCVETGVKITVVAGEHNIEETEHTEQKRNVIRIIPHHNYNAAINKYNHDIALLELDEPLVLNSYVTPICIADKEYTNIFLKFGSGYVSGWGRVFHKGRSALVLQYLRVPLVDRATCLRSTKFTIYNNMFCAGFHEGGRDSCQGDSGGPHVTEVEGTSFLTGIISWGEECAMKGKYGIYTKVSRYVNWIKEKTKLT
Sequence of Coagulation factor X (Homo sapiens) (P00742 41-179 limits assumed): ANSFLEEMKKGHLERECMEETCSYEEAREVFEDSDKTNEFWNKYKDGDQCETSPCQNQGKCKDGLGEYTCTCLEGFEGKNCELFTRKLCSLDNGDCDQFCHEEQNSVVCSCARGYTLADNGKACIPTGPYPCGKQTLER
Sequence of Coagulation factor X (Homo sapiens) (P00742 235-488 limits assumed): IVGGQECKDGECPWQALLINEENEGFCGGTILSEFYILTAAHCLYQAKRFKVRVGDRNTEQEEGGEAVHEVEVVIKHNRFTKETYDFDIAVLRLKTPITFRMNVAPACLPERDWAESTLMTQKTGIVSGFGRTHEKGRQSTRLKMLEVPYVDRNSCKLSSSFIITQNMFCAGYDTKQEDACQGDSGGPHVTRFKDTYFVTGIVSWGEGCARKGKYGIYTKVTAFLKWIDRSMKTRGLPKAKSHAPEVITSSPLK
Sequence of Coagulation factor IX (P00740 47-191 limits assumed): as the sequence (P00740 47-191 limits assumed) above
Sequence of Coagulation factor IX (P00740 227-461 limits assumed): as the sequence (P00740 227-461 limits assumed) above

Activity [1]: Not Active | IC50 [2]: 14 nM | IC50 [3]: 430 nM | inhibition [4]: inactive | Activity [7]: Not Active | MRT last [8]: 1.99 h | MRT last [10]: 1.52 h | MRT inf [11]: 1.71 h | half-life [12]: 0.564 h
Structure (SMILES): CC(=O)N[C@H]1[C@H](O[C@H]2[C@H](O[C@@H]3O[C@@H](C)[C@@H](OS(=O)(=O)[O-])[C@@H](O)[C@@H]3OS(=O)(=O)O)[C@@H](O)[C@H](O[C@H]3[C@@H](NC(C)=O)[C@H](O[C@H]4[C@H](O[C@@H]5O[C@@H](C)[C@@H](OS(=O)(=O)[O-])[C@@H](O)[C@@H]5OS(=O)(=O)O)[C@@H](O)[C@H](O[C@H]5[C@@H](NC(C)=O)[C@H](O[C@H]6[C@H](O[C@@H]7O[C@@H](C)[C@@H](OS(=O)(=O)[O-])[C@@H](O)[C@@H]7OS(=O)(=O)O)[C@@H](O)[C@H](O[C@H]7[C@@H](NC(C)=O)[C@H](O[C@H]8[C@H](O[C@@H]9O[C@@H](C)[C@@H](OS(=O)(=O)[O-])[C@@H](O)[C@@H]9OS(=O)(=O)O)[C@@H](O)[C@H](O[C@H]9[C@@H](NC(C)=O)[C@H](O[C@@H]([C@H](O[C@@H]%10O[C@@H](C)[C@@H](OS(=O)(=O)[O-])[C@@H](O)[C@@H]%10OS(=O)(=O)O)[C@@H](O)CO)[C@H](O)C(=O)[O-])O[C@H](COS(=O)(=O)[O-])[C@@H]9OS(=O)(=O)[O-])O[C@@H]8C(=O)[O-])O[C@H](COS(=O)(=O)[O-])[C@@H]7OS(=O)(=O)[O-])O[C@@H]6C(=O)[O-])O[C@H](COS(=O)(=O)[O-])[C@@H]5OS(=O)(=O)[O-])O[C@@H]4C(=O)[O-])O[C@H](COS(=O)(=O)[O-])[C@@H]3OS(=O)(=O)[O-])O[C@@H]2C(=O)[O-])O[C@H](COS(=O)(=O)[O-])[C@H](OS(=O)(=O)[O-])[C@@H]1O[C@@H]1OC(C(=O)[O-])=C[C@H](O[C@@H]2O[C@@H](C)[C@@H](OS(=O)(=O)[O-])[C@@H](O)[C@@H]2OS(=O)(=O)O)[C@H]1O.[Na+].[Na+].[Na+].[Na+].[Na+].[Na+].[Na+].[Na+].[Na+].[Na+].[Na+].[Na+].[Na+].[Na+].[Na+].[Na+].[Na+].[Na+].[Na+].[Na+].[Na+].[Na+]
Activity [5]: Active | Activity [6]: Active | Emax [9]: 7.68 s
